Data published in US20110224210A1, “NOVEL BIS-AMIDES AS ANTI-MALARIAL AGENTS” (priority 2008, published 2011).

These compounds were tested on P. falciparum K1 (strain resistant to chloroquine and pyrimethamine), erythrocytic stages (assay: Plasmodium falciparum in vitro assay, [3H] hypoxanthine incorporation). Conditions: P. falciparum strain K1; [3H] hypoxanthine incorporation; read-out: IC50 (nM) on K1.
Assay type: cell-based
Procedure, shortened: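 K1 strain parasites grown in human red cells, 2.5% haematocrit, 0.3% parasitaemia, 37 °C, 4% CO2/3% O2; compounds in seven serial doubling dilutions.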

| IC50 | SMILES |
| --- | --- |
| 89 nM | CC(=O)N1CCN(c2ccc(CN(C(=O)C=Cc3ccc(C(F)(F)F)cc3)[C@@H](Cc3ccccc3)C(=O)N(C)CCOCc3ccc(C)cc3C)cc2)CC1 [Example 194, (S)-N-[4-(4-Acetyl-piperazin-1-yl)-benzyl]-N-(1-{[2-(2,4-dimethyl-benzyloxy)-ethyl]-methyl-carbamoyl}-2-phenyl-ethyl)-3-(4-trifluoromethyl-phenyl)-acrylamide] |

Same assay, conditions: Plasmodium falciparum, K1, P. falciparum strain K1; [3H] hypoxanthine incorporation; read-out: IC50 (nM) on K1

| SMILES | IC50 |
| --- | --- |
| COc1cccc(COCCN(C)C(=O)[C@H](Cc2ccccc2)N(Cc2ccc(N3CCOCC3)cc2)C(=O)C=Cc2ccc(C(F)(F)F)cc2)c1 [Example 191, (S)-N-(1-{[2-(3-Methoxy-benzyloxy)-ethyl]-methyl-carbamoyl}-2-phenyl-ethyl)-N-(4-morpholin-4-yl-benzyl)-3-(4-trifluoromethyl-phenyl)-acrylamide, formic acid] | 11 nM |
| CCOCCN(C)C(=O)[C@H](Cc1ccccc1)N(Cc1ccc(N2CCOCC2)cc1)C(=O)C=Cc1ccc(C(F)(F)F)cc1 [Example 192, (S)-N-{1-[(2-Ethoxy-ethyl)-methyl-carbamoyl]-2-phenyl-ethyl}-N-(4-morpholin-4-yl-benzyl)-3-(4-trifluoromethyl-phenyl)-acrylamide] | 19 nM |
| Cc1ccc(COCCN(C)C(=O)[C@H](Cc2ccccc2)N(Cc2ccc(N3CCOCC3)cc2)C(=O)C=Cc2ccc(C(F)(F)F)cc2)c(C)c1 [Example 195, (S)-N-(1-{[2-(2,4-Dimethyl-benzyloxy)-ethyl]-methyl-carbamoyl}-2-phenyl-ethyl)-N-(4-morpholin-4-yl-benzyl)-3-(4-trifluoromethyl-phenyl)-acrylamide] | 81 nM |
| COc1ccc(COCCN(C)C(=O)[C@H](Cc2ccccc2)N(Cc2ccc(N3CCOCC3)cc2)C(=O)C=Cc2ccc(C(F)(F)F)cc2)cc1F [Example 196, (S)-N-(1-{[2-(3-Fluoro-4-methoxy-benzyloxy)-ethyl]-methyl-carbamoyl}-2-phenyl-ethyl)-N-(4-morpholin-4-yl-benzyl)-3-(4-trifluoromethyl-phenyl)-acrylamide] | 16 nM |
| CN(CCOCc1cccc(C#N)c1)C(=O)[C@H](Cc1ccccc1)N(Cc1ccc(N2CCOCC2)cc1)C(=O)C=Cc1ccc(C(F)(F)F)cc1 [Example 197, (S)-N-(1-{[2-(3-Cyano-benzyloxy)-ethyl]-methyl-carbamoyl}-2-phenyl-ethyl)-N-(4-morpholin-4-yl-benzyl)-3-(4-trifluoromethyl-phenyl)-acrylamide] | 29 nM |
| CN(CCOCc1cccc(OC(F)(F)F)c1)C(=O)[C@H](Cc1ccccc1)N(Cc1ccc(N2CCOCC2)cc1)C(=O)C=Cc1ccc(C(F)(F)F)cc1 [Example 198, (S)-N-(1-{Methyl-[2-(3-trifluoromethoxy-benzyloxy)-ethyl]-carbamoyl}-2-phenyl-ethyl)-N-(4-morpholin-4-yl-benzyl)-3-(4-trifluoromethyl-phenyl)-acrylamide] | 65 nM |
| COc1cc(COCCN(C)C(=O)[C@H](Cc2ccccc2)N(Cc2ccc(N3CCOCC3)cc2)C(=O)C=Cc2ccc(C(F)(F)F)cc2)cc(OC)c1 [Example 199, (S)-N-(1-{[2-(3,5-Dimethoxy-benzyloxy)-ethyl]-methyl-carbamoyl}-2-phenyl-ethyl)-N-(4-morpholin-4-yl-benzyl)-3-(4-trifluoromethyl-phenyl)-acrylamide] | 34 nM |
| CN(CCOCc1ccc(OC(F)F)cc1)C(=O)[C@H](Cc1ccccc1)N(Cc1ccc(N2CCOCC2)cc1)C(=O)C=Cc1ccc(C(F)(F)F)cc1 [Example 201, (S)-N-(1-{[2-(4-Difluoromethoxy-benzyloxy)-ethyl]-methyl-carbamoyl}-2-phenyl-ethyl)-N-(4-morpholin-4-yl-benzyl)-3-(4-trifluoromethyl-phenyl)-acrylamide] | 32 nM |
| CN(CCOCc1ccc2c(c1)nnn2C)C(=O)[C@H](Cc1ccccc1)N(Cc1ccc(N2CCOCC2)cc1)C(=O)C=Cc1ccc(C(F)(F)F)cc1 [Example 202, (S)-N-(1-{Methyl-[2-(1-methyl-1H-benzotriazol-5-ylmethoxy)-ethyl]-carbamoyl}-2-phenyl-ethyl)-N-(4-morpholin-4-yl-benzyl)-3-(4-trifluoromethyl-phenyl)-acrylamide] | 14 nM |
| CN(CCOCc1cccnc1)C(=O)[C@H](Cc1ccccc1)N(Cc1ccc(N2CCOCC2)cc1)C(=O)C=Cc1ccc(C(F)(F)F)cc1 [Example 203, (S)-N-(1-{Methyl-[2-(pyridin-3-ylmethoxy)-ethyl]-carbamoyl}-2-phenyl-ethyl)-N-(4-morpholin-4-yl-benzyl)-3-(4-trifluoromethyl-phenyl)-acrylamide] | 12 nM |
| CC(=O)N1CCN(c2ccc(CN(C(=O)C=Cc3ccc(C(F)(F)F)nc3)[C@@H](Cc3ccccc3)C(=O)N(C)CCOCc3ccncc3)cc2)CC1 [Example 208, (S)-N-[4-(4-Acetyl-piperazin-1-yl)-benzyl]-N-(1-{methyl-[2-(pyridin-4-ylmethoxy)-ethyl]-carbamoyl}-2-phenyl-ethyl)-3-(6-trifluoromethyl-pyridin-3-yl)-acrylamide] | 57 nM |
| CC(=O)N1CCN(c2ccc(CN(C(=O)C=Cc3ccc(C(F)(F)F)cc3)[C@@H](Cc3ccccc3)C(=O)N(C)CCOCCOCc3ccccc3)cc2)CC1 [Example 210, (S)-N-[4-(4-Acetyl-piperazin-1-yl)-benzyl]-N-(1-{[2-(2-benzyloxy-ethoxy)-ethyl]-methyl-carbamoyl}-2-phenyl-ethyl)-3-(4-trifluoromethyl-phenyl)-acrylamide] | 28 nM |

The next lines start with the values.

| IC50 | SMILES |
| --- | --- |
| 7 nM | CC(=O)N1CCN(c2ccc(CN(C(=O)C=Cc3ccc(C(F)(F)F)cc3)[C@@H](Cc3ccccc3)C(=O)N(C)CCOCc3cccnc3)cc2)CC1 [Example 190, (S)-N-[4-(4-Acetyl-piperazin-1-yl)-benzyl]-N-(1-{methyl-[2-(pyridin-3-ylmethoxy)-ethyl]-carbamoyl}-2-phenyl-ethyl)-3-(4-trifluoromethyl-phenyl)-acrylamide, formic acid] |
| 20 nM | CCOCCN(C)C(=O)[C@H](Cc1ccccc1)N(Cc1ccc(N2CCN(C(C)=O)CC2)cc1)C(=O)C=Cc1ccc(C(F)(F)F)cc1 [Example 193, (S)-N-[4-(4-Acetyl-piperazin-1-yl)-benzyl]-N-{1-[(2-ethoxy-ethyl)-methyl-carbamoyl]-2-phenyl-ethyl}-3-(4-trifluoromethyl-phenyl)-acrylamide] |
| 9 nM | CC(=O)N1CCN(c2ccc(CN(C(=O)C=Cc3ccc(C(F)(F)F)cc3)[C@@H](Cc3ccccc3)C(=O)N(C)CCOCc3cc(C)on3)cc2)CC1 [Example 204, (S)-N-[4-(4-Acetyl-piperazin-1-yl)-benzyl]-N-(1-{methyl-[2-(5-methyl-isoxazol-3-ylmethoxy)-ethyl]-carbamoyl}-2-phenyl-ethyl)-3-(4-trifluoromethyl-phenyl)-acrylamide] |
| 16 nM | CC(=O)N1CCN(c2ccc(CN(C(=O)C=Cc3ccc(C(F)(F)F)cc3)[C@@H](Cc3ccccc3)C(=O)N(C)CCOCc3ccncc3)cc2)CC1 [Example 205, (S)-N-[4-(4-Acetyl-piperazin-1-yl)-benzyl]-N-(1-{methyl-[2-(pyridin-4-ylmethoxy)-ethyl]-carbamoyl}-2-phenyl-ethyl)-3-(4-trifluoromethyl-phenyl)-acrylamide] |
| 81 nM | CC(=O)N1CCN(c2ccc(CN(C(=O)C=Cc3ccc(C(F)(F)F)cc3)[C@@H](Cc3ccccc3)C(=O)N(C)CCOCc3ccc(C(F)(F)F)o3)cc2)CC1 [Example 206, (S)-N-[4-(4-Acetyl-piperazin-1-yl)-benzyl]-N-(1-{methyl-[2-(5-trifluoromethyl-furan-2-ylmethoxy)-ethyl]-carbamoyl}-2-phenyl-ethyl)-3-(4-trifluoromethyl-phenyl)-acrylamide] |
| 40 nM | CC(=O)N1CCN(c2ccc(CN(C(=O)C=Cc3ccc(C(F)(F)F)cc3)[C@@H](Cc3ccccc3)C(=O)N(C)CCOCC3CC3)cc2)CC1 [Example 207, (S)-N-[4-(4-Acetyl-piperazin-1-yl)-benzyl]-N-{1-[(2-cyclopropylmethoxy-ethyl)-methyl-carbamoyl]-2-phenyl-ethyl}-3-(4-trifluoromethyl-phenyl)-acrylamide] |
| 31 nM | CC(=O)N1CCN(c2ccc(CN(C(=O)C=Cc3ccc(C(F)(F)F)nc3)[C@@H](Cc3ccccc3)C(=O)N(C)CCOCc3cc(C)on3)cc2)CC1 [Example 209, (S)-N-[4-(4-Acetyl-piperazin-1-yl)-benzyl]-N-(1-{methyl-[2-(5-methyl-isoxazol-3-ylmethoxy)-ethyl]-carbamoyl}-2-phenyl-ethyl)-3-(6-trifluoromethyl-pyridin-3-yl)-acrylamide] |
| 18 nM | CC(=O)N1CCN(c2ccc(CN(C(=O)C=Cc3ccc(C(F)(F)F)cc3)[C@@H](Cc3ccccc3)C(=O)N(C)CCOCC#N)cc2)CC1 [Example 211, (S)-N-[4-(4-Acetyl-piperazin-1-yl)-benzyl]-N-{1-[(2-cyanomethoxy-ethyl)-methyl-carbamoyl]-2-phenyl-ethyl}-3-(4-trifluoromethyl-phenyl)-acrylamide] |
| 20 nM | C=CCOCCN(C)C(=O)[C@H](Cc1ccccc1)N(Cc1ccc(N2CCN(C(C)=O)CC2)cc1)C(=O)C=Cc1ccc(C(F)(F)F)cc1 [Example 212, (S)-N-[4-(4-Acetyl-piperazin-1-yl)-benzyl]-N-{1-[(2-allyloxy-ethyl)-methyl-carbamoyl]-2-phenyl-ethyl}-3-(4-trifluoromethyl-phenyl)-acrylamide] |
| 72 nM | CC(=O)N1CCN(c2ccc(CN(C(=O)C=Cc3ccc(C(F)(F)F)cc3)[C@@H](Cc3ccccc3)C(=O)N(C)CCOCC(N)=O)cc2)CC1 [Example 213, (S)-N-[4-(4-Acetyl-piperazin-1-yl)-benzyl]-N-{1-[(2-carbamoylmethoxy-ethyl)-methyl-carbamoyl]-2-phenyl-ethyl}-3-(4-trifluoromethyl-phenyl)-acrylamide] |
| 23 nM | CC(=O)N1CCN(c2ccc(CN(C(=O)C=Cc3ccc(C(F)(F)F)cc3)[C@@H](Cc3ccccc3)C(=O)N(C)CCOCc3ccccn3)cc2)CC1 [Example 214, (S)-N-[4-(4-Acetyl-piperazin-1-yl)-benzyl]-N-(1-{methyl-[2-(pyridin-2-ylmethoxy)-ethyl]-carbamoyl}-2-phenyl-ethyl)-3-(4-trifluoromethyl-phenyl)-acrylamide] |
